Test results: PMC8280112, “Substrate reduction therapy for Krabbe disease and metachromatic leukodystrophy using a novel ceramide galactosyltransferase inhibitor” (Scientific Reports, 2021)

Tests used:
Human CGT = target: T1, Human CGT (Homo sapiens, UniProt Q16880); test: CGT enzyme assay (cell-lysate assay); format: biochemical; settings: lysate of CHO cells expressing human UGT8
T1 construct: made in house; host or cells: CHO cells expressing UGT8; crude M-PER lysate
T1 sequence (Q16880 21-541): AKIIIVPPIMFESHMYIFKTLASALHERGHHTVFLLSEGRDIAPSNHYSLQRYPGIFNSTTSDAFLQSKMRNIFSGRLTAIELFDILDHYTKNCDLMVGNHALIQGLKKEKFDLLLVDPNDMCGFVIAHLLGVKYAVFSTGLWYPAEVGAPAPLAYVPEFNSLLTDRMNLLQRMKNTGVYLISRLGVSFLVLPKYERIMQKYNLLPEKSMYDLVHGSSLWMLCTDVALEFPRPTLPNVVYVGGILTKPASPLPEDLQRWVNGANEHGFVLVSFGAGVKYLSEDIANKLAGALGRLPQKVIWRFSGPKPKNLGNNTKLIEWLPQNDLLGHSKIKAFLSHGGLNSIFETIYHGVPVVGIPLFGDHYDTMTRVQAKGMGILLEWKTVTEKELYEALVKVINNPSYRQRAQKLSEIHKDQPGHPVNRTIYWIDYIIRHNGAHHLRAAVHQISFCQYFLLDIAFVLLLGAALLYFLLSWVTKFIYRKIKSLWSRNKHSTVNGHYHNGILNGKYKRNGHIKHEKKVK
Protocol: Human CGT was obtained from a cell lysate from CHO cells expressing UGT8 (made by BioMarin) prepared in M-PER with proteinase inhibitors (Sigma). Compounds, serially diluted in DMSO and Tween 80, were added to 4 µg/well of CHO/CGT cell lysate to make 20 µL final reaction volume containing 0.5% DMSO and 0.01% Tween 80 in the reaction buffer consisting of 10 µM NDB-(2R-OH)-C6 ceramide (made by BioMarin), 17.5 µM UDP-Galactose (Sigma), 35 µM of dioleoylphosphatidylcholine (DOPC), 5 mM MgCl2, 5 mM MnCl2, 1% BSA, 15 mM KCl, 1 mM EGTA, 8 mM CHAPS, 10 mM HEPES–NaOH pH 7.2. The reaction was incubated at 37 °C for 1 h and stopped by adding 80 µL of methanol:acetonitrile (1:3) with 5 µM N-dodecanoyl-NBD-galactosylceramide (Matreya) internal standard (IS) for 30 min. 200 µL H2O:ACN (1:1) was added for 5 min and then centrifuged at 4000 rpm for 38 min at RT before quantifying NDB-(2R-OH)-C6-galactosylceramide (BioMarin) by LC–MS on a Rapid Fire 360 mass spectrometer (Agilent) coupled with a API4000 + MS in electrospray ionization (ESI) negative mode (Applied Biosystems). These assay conditions were used to screen the Bio-active lipid library (Cayman Cat# 10506).

[1] = target: T2, Recombinant human galactosylceramidase (GALC) (Homo sapiens, UniProt P54803); test: Galactosylceramidase assay; format: biochemical
T2 construct: purchased R&D Systems
T2 sequence (P54803 43-685): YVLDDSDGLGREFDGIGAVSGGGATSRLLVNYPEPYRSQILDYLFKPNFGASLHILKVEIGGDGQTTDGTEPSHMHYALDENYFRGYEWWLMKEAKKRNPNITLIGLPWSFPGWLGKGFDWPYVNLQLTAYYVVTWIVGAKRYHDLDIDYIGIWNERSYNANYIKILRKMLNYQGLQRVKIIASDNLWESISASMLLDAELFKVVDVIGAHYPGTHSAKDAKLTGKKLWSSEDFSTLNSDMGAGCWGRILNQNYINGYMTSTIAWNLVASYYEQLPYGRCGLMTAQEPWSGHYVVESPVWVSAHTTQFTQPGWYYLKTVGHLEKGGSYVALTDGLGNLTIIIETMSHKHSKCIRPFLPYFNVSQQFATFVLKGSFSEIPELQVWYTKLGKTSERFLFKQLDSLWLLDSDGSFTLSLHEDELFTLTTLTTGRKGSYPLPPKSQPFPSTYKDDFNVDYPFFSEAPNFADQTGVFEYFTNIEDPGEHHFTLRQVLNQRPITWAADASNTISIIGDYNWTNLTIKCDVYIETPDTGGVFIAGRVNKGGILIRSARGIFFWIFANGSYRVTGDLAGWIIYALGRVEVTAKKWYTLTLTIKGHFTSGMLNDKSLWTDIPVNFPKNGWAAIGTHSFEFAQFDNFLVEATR
Source text: Recombinant human galactosylceramidase (R&D Systems) activity was monitored using the artificial fluorescent substrate 4-methylumbelliferyl-β-D-galactopyranoside (Sigma) using the assay conditions described on the enzyme product datasheet.

wild-type mice = test: PND15 wild-type mice tolerability study: clinical signs, wire hang, NCV, histology; format: in vivo, mouse
Protocol: Animals were euthanized with CO2 followed by cardiac puncture. Blood was collected via cardiac puncture and split for blood chemistry and hematology.
Beginning on the 2nd week of treatment mice were trained weekly for two weeks. Mice are placed on a wire grid, which is shaken to increase wire grabbing, and then immediately turned over. Mice are timed for their ability to hang from the inverted grid for 1 min. Three trials are performed, up to 1 min each, with a 30 s recovery period between trials. After training, mice were tested weekly and times recorded. The test was done with the grid held 10–12 in. over a box of clean shavings.
Brains were collected after removal of the calvarium, weighted, and halved following the midline. The brain was sectioned in the mid-sagittal plane with half placed in 10% NBF. One sciatic nerve and other organs [heart, lung, liver, spleen, kidney, adrenal glands, stomach, small intestine, large intestine, spinal cord (cervical, thoracic, lumbar), skin, testes, and lymph nodes] were also collected and fixed in 10% NBF. Sections of sciatic nerve were also fixed in 2% PFA, 2% glutaraldehyde, embedded, sectioned and stained with Toluidine blue before scanning. Images were analyzed to determine the G-ratio in the […].
Mice were anesthetized with isoflurane and placed on a thermostatically controlled heating pad to maintain body temperature. The recording electrode was inserted into the plantar muscles and a reference electrode was placed in the skin between toes. A pair of subcutaneous stimulating electrodes were placed distally on both sides of the ankle to stimulate the lateral plantar nerve. For proximal stimulation, the electrodes are moved to the level of the sciatic notch, to the depth of the sciatic nerve. […] Six distally-produced CMAPs were recorded and stored. The procedure was repeated using the proximal electrode pair, and current was increased until a CMAP that matches that produced by distal stimulation was evident. Six proximally-produced CMAPs were recorded and stored. The distance between the sites of stimulation was measured. NCV was later calculated using the two latencies and conduction distance. The H wave was recorded during the recording of the distally stimulated CMAPs.

Twitcher mice = test: Twitcher mouse brain immunostaining and cytokine analysis; format: in vivo; settings: 0.15 mg/kg IP three times per week, PND3 to PND28
Protocol: Five sections from a one in four series of sagittal brain sections from each mouse were stained on slides using a modified immunofluorescence protocol for the following antibodies—astrocytes (rabbit anti-GFAP, 1:1000, DAKO Z0334), microglia (rat anti-mouse CD68, 1:400, Bio-Rad MCA1957), and myelin basic protein (MBP) (rat anti-MBP, 1:500, Merck Millipore MAB386). Briefly, 40 µm sagittal sections were mounted on Superfrost Plus slides (Fisher Scientific), air-dried for 30 min, and blocked in 15% normal goat serum solution (Vector Labs, S-1000) in 2% TBS-T (1 × Tris Buffered Saline, pH 7.6 with 2% Triton-X100, Fisher Scientific) for 1 h. Slides were then incubated in primary antibody in 10% serum solution in 2% TBS-T for 2 h. Slides were washed three times in 1×TBS and incubated in fluorescent Alexa-Fluor labelled IgG secondary antibodies (Alexa-Fluor goat anti-rabbit 488, Invitrogen A-11008 and goat anti-rat 546, Invitrogen A-11081) in 10% serum solution in 2% TBS-T for 2 h, washed three times in 1×TBS, and incubated in a 1 × solution of TrueBlack lipofuscin autofluorescence quencher (Biotium, Fremont, CA, #23,007) in 70% ethanol for 2 min before rinsing in 1×TBS. Slides were coverslipped in fluoromount-G mounting medium with DAPI (Southern Biotech). To analyze the glial activation (GFAP-positive astrocytes + CD68-positive microglia) as well as MBP staining of punctate bodies in the cerebellar white matter, a semiautomated thresholding image analysis method was used with Image-Pro Premier software (Media Cybernetics). Briefly, this involved the collection of slide-scanned images at 5 × magnification for a one in four series of 3 sections per animal followed by demarcation of all regions (in this case the white matter of the cerebellum) of interest while maintaining the lamp intensity, video camera setup, and calibration constant throughout image capturing. Images were subsequently analyzed using Image-Pro Premier using an appropriate threshold that selected the foreground immunoreactivity above background. This threshold was then applied as a constant to all subsequent images analyzed per batch of animals and reagent used to determine the specific area of immunoreactivity for each antigen. Image densitometry for the average pixel luminance data was also gathered for MBP staining of the cerebellar white matter due to the higher density of staining. Slide-scanned images at 5 × magnification were collected for a one in forty-eight series of sections per animal followed by collecting the mean luminance data across all pixels from the regions of interest delineated using Image-Pro Premier.
Cytokine/chemokine analyses were performed on the brains from the same animals used for immunofluorescent imaging. […]

[2] = wild-type mice, chronic, 2.3 and 5.4 mg/kg

`C[C@H]1N(c2ccc(Br)cc2)C(=O)N(c2ccc(Br)cc2)C1(O)c1cccc(OC(F)(F)F)c1` (stereo partly drawn) [S202] was tested. Which IC50 (Human CGT) did it give?
The IC50 was 0.015 µM.

And the IC50 [1]?
The IC50 was over 50 µM.

What about the testes histopathology (wild-type mice; wild-type mice treated from PND15 to PND70) of the same compound?
Its testes histopathology is “germ cell exfoliation with decreased germinal epithelial layers”.

What about the “longer-term (8 week) tolerability” value (wild-type mice; wild-type mice, IP three times per week from PND15, 2.3 mg/kg and 5.4 mg/kg) of the same compound?
The value was “well tolerated with no mortality, change in weight, or grossly abnormal clinical signs”.

And the “brain and spinal cord histology (H&E, luxol fast blue/PAS)” value (wild-type mice; wild-type mice, chronic treatment from PND15)?
The value was “widespread vacuolation”.

What about the “sciatic nerve conduction velocity (NCV)” value (wild-type mice; [2]) of the same compound?
The value was “significant and dose-dependent reduction”.

And the wire hang test (wild-type mice; [2])?
The wire hang test was “impaired performance on the wire hang test”.

And the gait (wild-type mice; wild-type mice, chronic, 2.3 and 5.4 mg/kg, some mice)?
The gait was “mild gait abnormality”.

What about the “CD68-positive macrophages in brain sections” value (Twitcher mice) of the same compound?
The value was “trend toward reduction”.

And the “GROA level in brain homogenates” value (Twitcher mice)?
Its value is “reduced the levels”.

What about the “MCP-1 level in brain homogenates” value (Twitcher mice) of the same compound?
The value was “reduced the levels”.

And the “marker of astrocytosis (GFAP) in brain sections” value (Twitcher mice)?
Its value is “trend toward reduction”.
